The source of these data is patent publication US20120214802A1, “PYRROLIDINE COMPOUNDS WHICH INHIBIT BETA-SECRETASE ACTIVITY AND METHODS OF USE THEREOF” (priority 2009, published 2012).

The term IC50 denotes the midpoint of a concentration-inhibition curve.

Each structure is given as a SMILES string. Like-named read-outs stand apart in the source and are kept apart here.

In data set [1] the target is T1, CYP3A4 (Homo sapiens, UniProt P08684).
T1 construct: host or cells: human liver microsomes
Description: CYP3A4 inhibition (midazolam metabolism in human liver microsomes). It counts as in vitro ADME. To be noted: substrate midazolam, read-out: CYP 3A4Ki. In a few lines: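 Human liver microsomes (0.1 mg/mL) with midazolam at 1.25–10 μM and compound at 0.078–10 μM, in 100 mM phosphate pH 7.4 with NADPH regeneration at 37.2 °C, sampled at 20, 30 and 40 min. 1′-Hydroxymidazolam was quantified by LC-MS/MS. Ki was obtained by Dixon plots across substrate concentrations.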
A general note: Liver microsomes are vesicles of endoplasmic reticulum, rich in cytochrome P450 enzymes.

For data set [2], the target named is memapsin 2 (Homo sapiens, UniProt P56817). Description: Inhibition of memapsin 2 beta-secretase activity (fluorogenic substrate FS-2). The class given is biochemical. To be noted: pH 4, 37° C., read-out: M2 Ki. The method, boiled down: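 Memapsin 2 pre-incubated with compound for 20 min at pH 4, 37° C. Reaction started with fluorogenic substrate FS-2, […], derived from Swedish-variant APP beta-secretase site; inhibition measured from fluorescence.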

Data set [3] addresses cathepsin D (Homo sapiens, UniProt P07339). Nature of the data set: Inhibition of cathepsin D activity (MALDI-TOF, substrate ELDLAVEFWHDR). The class given is biochemical. As for the experimental part: [The source words this procedure for another target and reports this target under the same test.] (§1) A substrate peptide NH3-ELDLAVEFWHDR-CO2 (SEQ ID NO.: 1) was dissolved at 2 mg/mL in 10% glacial acetic acid and diluted into 0.009M NaOH to obtain μM concentration at pH 4.1. After equilibration at 37 degrees C., the reactions were initiated by the addition of an aliquot of memapsin 2. Aliquots were removed at time intervals, and combined with an equal volume of MALDI-TOF matrix (α-hydroxycinnamic acid in acetone, 20 mg/mL) and immediately spotted in duplicate onto a stainless-steel MALDI sample plate. MALDI-TOF mass spectrometry was performed on a PE Biosystems Voyager DE. The instrument was operated at 25,000 accelerating volts in positive mode with a 150 ns delay. Ions with a mass-to-charge ratio (m/z) were detected in the range of 650-2000 atomic mass units. Data were analyzed by the Voyager Data Explorer module to obtain ion intensity data for mass species of substrates and corresponding products in a given mixture. Relative product formation was calculated as the ratio of signal intensity of the product to the sum of signal intensities of both product and the corresponding substrate. Relative product formed per unit time was obtained from non-linear regression analysis of the data representing the initial 15% formation of product using the model:
where k was the relative hydrolytic rate constant and T was time in seconds. Initial rates were expressed relative to uninhibited controls and fit to a tight-binding model of competitive inhibition as above.

A short description of data set [4]: Hepatic intrinsic clearance in liver microsomes. The class given is in vitro ADME. The following applies: human, pH 7.4, human liver microsomes, in vitro clearance, read-out: HLM CL. In a few lines: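 Human liver microsomes in pH 7.4 phosphate buffer with EDTA, preincubated 5 min at 37° C, then started with NADPH; samples taken at 0, 5, 10, 20 and 30 min and parent measured by LC/MS/MS. Remaining compound relative to 0 min gave half-life and k1, scaled to in vivo clearance per Davies and Morris.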

Data set [5] deals with T2, memapsin 2 (Cricetulus griseus, UniProt G3IAK4).
T2 construct: endogenous in cells; host or cells: Chinese hamster ovary cells over-expressing human APP695 (London + Swedish)
Nature of the data set: Cellular Aβ IC50 determination (Aβ40 sandwich ELISA). It counts as cell-based, Chinese hamster. To be noted: CHO cells over-expressing human APP695 with London and Swedish mutations, 24 h, read-out: M2 IC50. In a few lines: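 CHO cells overexpressing human APP695 (London and Swedish mutations) treated 48 h post-seeding with serially diluted compounds (top near 4 μM, 0.4% DMSO), 24 h at 37° C, 5% CO2. Medium Aβ40 measured by sandwich ELISA; levels relative to control fitted to 4-parameter IC50 model.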
For orientation: An ELISA detects its analyte on a solid surface through an enzyme-linked reagent.

For data set [6], the target named is T3, memapsin 1 (Homo sapiens, UniProt Q9Y5Z0).
T3 sequence (Q9Y5Z0 63-518): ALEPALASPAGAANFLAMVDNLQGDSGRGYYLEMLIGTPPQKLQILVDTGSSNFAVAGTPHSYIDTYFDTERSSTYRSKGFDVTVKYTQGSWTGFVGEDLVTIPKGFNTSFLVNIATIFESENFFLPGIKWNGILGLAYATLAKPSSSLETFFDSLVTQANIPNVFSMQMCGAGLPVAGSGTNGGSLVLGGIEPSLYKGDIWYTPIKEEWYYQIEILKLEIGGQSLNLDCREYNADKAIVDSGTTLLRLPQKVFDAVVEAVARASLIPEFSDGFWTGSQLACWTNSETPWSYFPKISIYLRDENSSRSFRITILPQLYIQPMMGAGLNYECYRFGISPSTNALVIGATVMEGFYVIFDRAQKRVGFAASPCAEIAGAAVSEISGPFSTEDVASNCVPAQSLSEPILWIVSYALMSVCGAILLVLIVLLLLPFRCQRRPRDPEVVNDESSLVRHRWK
Nature of the data set: Inhibition of memapsin 1 beta-secretase activity (MALDI-TOF, substrate ELDLAVEFWHDR). It counts as biochemical. The following applies: read-out: M1 Ki. As to the method:
[The source words this procedure for another target and reports this target under the same test.] as §1
where k was the relative hydrolytic rate constant and T was time in seconds. […]

[7] abbreviates: substrate peptide ELDLAVEFWHDR, pH 4.1, 37 degrees C, read-out: CD Ki.

memapsin 2 (Homo sapiens, UniProt P56817), sequence (P56817 46-501): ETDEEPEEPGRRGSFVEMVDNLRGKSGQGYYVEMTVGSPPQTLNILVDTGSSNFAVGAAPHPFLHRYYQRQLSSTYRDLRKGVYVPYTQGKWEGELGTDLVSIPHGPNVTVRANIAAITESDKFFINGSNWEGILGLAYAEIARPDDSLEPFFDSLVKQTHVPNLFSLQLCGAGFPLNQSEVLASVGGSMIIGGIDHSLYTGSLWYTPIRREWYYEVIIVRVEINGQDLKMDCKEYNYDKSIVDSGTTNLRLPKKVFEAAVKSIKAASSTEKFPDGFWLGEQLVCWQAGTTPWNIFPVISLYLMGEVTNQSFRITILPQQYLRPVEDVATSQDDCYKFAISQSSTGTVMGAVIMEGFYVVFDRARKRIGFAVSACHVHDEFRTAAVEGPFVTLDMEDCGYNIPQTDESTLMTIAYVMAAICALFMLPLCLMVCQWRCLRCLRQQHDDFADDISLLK
T2 sequence (G3IAK4 22-501): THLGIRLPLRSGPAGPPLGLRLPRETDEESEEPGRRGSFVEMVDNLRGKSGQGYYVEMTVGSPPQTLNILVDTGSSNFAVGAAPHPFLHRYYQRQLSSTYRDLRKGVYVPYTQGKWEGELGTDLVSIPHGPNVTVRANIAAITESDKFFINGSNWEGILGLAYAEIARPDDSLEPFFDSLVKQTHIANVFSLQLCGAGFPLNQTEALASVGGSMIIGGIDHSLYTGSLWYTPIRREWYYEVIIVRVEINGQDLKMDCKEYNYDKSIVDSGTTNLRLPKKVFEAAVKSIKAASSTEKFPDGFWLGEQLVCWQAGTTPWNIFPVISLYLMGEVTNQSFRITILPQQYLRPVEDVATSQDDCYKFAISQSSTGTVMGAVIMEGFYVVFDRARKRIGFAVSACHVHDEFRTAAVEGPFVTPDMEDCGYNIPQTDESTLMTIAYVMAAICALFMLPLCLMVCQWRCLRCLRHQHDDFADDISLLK
cathepsin D, sequence (P07339 65-412, species assumed): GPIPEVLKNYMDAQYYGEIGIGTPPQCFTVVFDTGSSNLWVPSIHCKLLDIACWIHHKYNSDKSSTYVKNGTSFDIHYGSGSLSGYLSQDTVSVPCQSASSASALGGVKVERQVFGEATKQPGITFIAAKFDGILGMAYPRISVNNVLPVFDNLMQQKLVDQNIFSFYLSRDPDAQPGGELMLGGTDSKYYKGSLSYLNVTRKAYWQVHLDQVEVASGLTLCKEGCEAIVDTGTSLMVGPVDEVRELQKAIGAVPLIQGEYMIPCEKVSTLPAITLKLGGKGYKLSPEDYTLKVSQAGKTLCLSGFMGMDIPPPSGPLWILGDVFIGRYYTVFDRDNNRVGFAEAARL
T1 sequence (P08684 whole entry): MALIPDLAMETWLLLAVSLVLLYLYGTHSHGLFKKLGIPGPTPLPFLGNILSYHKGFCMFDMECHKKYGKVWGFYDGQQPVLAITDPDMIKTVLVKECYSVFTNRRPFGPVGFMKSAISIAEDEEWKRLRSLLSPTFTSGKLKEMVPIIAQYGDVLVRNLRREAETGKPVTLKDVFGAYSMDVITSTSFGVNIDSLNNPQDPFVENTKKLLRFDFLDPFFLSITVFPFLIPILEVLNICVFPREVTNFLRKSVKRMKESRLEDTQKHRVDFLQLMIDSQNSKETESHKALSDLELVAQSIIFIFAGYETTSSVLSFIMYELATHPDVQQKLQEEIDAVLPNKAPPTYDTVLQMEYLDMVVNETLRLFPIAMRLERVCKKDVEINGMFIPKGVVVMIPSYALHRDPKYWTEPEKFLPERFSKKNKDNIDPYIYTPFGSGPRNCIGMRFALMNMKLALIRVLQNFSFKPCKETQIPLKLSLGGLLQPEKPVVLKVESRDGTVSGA

Consider `Cc1csc([C@H]2CCCN2C(=O)c2cccc(C(=O)N[C@@H](Cc3cc(F)cc(F)c3)[C@H](O)[C@H]3CCCN3)c2)n1` [1-44, N-((1R,2S)-3-(3,5-difluorophenyl)-1-hydroxy-1-((R)-pyrrolidin-2-yl)propan-2-yl)-3-((R)-2-(4-methylthiazol-2-yl)pyrrolidine-1-carbonyl)benzamide], for which the Ki in data set [1] is 1000 to 5000 nM; in data set [2], less than 250 nM; in data set [3] (setting [7]), more than 500 nM. Moreover, in data set [4], the CLint scaled at 200 μM was less than 400 mL/min/kg. Besides, the IC50 in data set [5] lay in the range of 500 to 1000 nM.

Regarding `Cc1csc([C@H]2CCCN2C(=O)c2cc(C(=O)N[C@@H](Cc3ccccc3)[C@H](O)[C@H]3C[C@@H](OCc4ccccc4)CN3)cc(-n3cccc3)c2)n1` [1-25, N-((1R,2S)-1-((2R,4R)-4-(benzyloxy)pyrrolidin-2-yl)-1-hydroxy-3-phenylpropan-2-yl)-3-((R)-2-(4-methylthiazol-2-yl)pyrrolidine-1-carbonyl)-5-(1H-pyrrol-1-yl)benzamide], the Ki in data set [2] is less than 250 nM; in data set [3] (read-out: CathD Ki) it was 48.8 nM; in data set [3] (setting [7]), less than 300 nM; in data set [6], 624 nM; in data set [6] (substrate peptide ELDLAVEFWHDR, pH 4.1, 37 degrees C), more than 500 nM. In addition, the half-inhibitory concentration (IC50) in data set [5] was less than 500 nM.

On to `Cc1csc([C@H]2CCCN2C(=O)c2cc(C(=O)N[C@@H](Cc3ccccc3)[C@H](O)[C@H]3CCCN3)cc(-c3cccc(C(F)(F)F)c3)c2)n1` [1-43, N-((1R,2S)-1-hydroxy-3-phenyl-1-((R)-pyrrolidin-2-yl)propan-2-yl)-5-((R)-2-(4-methylthiazol-2-yl)pyrrolidine-1-carbonyl)-3′-(trifluoromethyl)biphenyl-3-carboxamide], for which the Ki was less than 250 nM in data set [2] and more than 500 nM in data set [3] (setting [7]). Further, in data set [4], the CLint scaled at 200 μM was less than 400 mL/min/kg. Moreover, the IC50 in data set [5] was more than 1000 nM.

Take `Cc1csc([C@H]2CCCN2C(=O)c2cccc(C(=O)N[C@@H](Cc3ccccc3)[C@H](O)[C@H]3C[C@@H](OCc4ccccc4)CN3)c2)n1` [1-22, N-((1R,2S)-1-((2R,4R)-4-(benzyloxy)pyrrolidin-2-yl)-1-hydroxy-3-phenylpropan-2-yl)-3-((R)-2-(4-methylthiazol-2-yl)pyrrolidine-1-carbonyl)benzamide]: the Ki is 1000 to 5000 nM in data set [1], less than 250 nM in data set [2] and 300 to 500 nM in data set [3] (setting [7]). Moreover, the IC50 in data set [5] was less than 500 nM.
